Experimental data from patent publication US20130004579A1, “Use of Plant Lectins to Target Leukocytes” (priority 2011, published 2013).

Key:
[1] = test system: IL-1α production by bone marrow-derived dendritic cells (BMDCs); assay: IL-1α ELISA on supernatants of BMDCs incubated with particles; assay type: cell-based, mouse; settings: C57BL/6 BMDCs; LPS 1 ng/ml; serial dilutions SC-PS 31.25 μg/ml to 1 mg/ml with lectin 1.56 to 50 μg/ml; vs unconjugated SC-PS
Protocol: (§1) BMDCs were isolated and cultured as described in Example 2 at a density of 6.25×10^5 cells/ml in 96 well U-bottomed microplates. Cells were stimulated with a Toll-like receptor (TLR) ligand (LPS or Pam2CSK4) for 6 hours. Cells were then incubated with either medium, alum/SC-PS particles, alum/SC-PS particles conjugated with UEA-1, alum/SC-PS particles conjugated with UEA-1 mimetic or with UEA-1 alone for 24 hours. After incubation, supernatants from BMDCs were collected and cytokine concentrations measured by ELISA. Antibody pairs specific for each cytokine were used for immunoassaying. The following cytokines were measured by immunoassay: IL-1α, IL-1β.
(§2) Capture antibodies were obtained from BD Pharmingen (San Diego, Calif.), BioLegend (San Diego, Calif.) and R&D Systems, Inc. (Minneapolis, Minn.) and prepared according to the manufacturer's specifications (see Table 2) and a volume of 40 μl/well added to high-binding 96 well ELISA plates. Plates were then incubated for 2 hours at 37° C. or overnight at 4° C. After incubation, plates were washed in PBS-T (×3) and tapped dry. Plates were then blocked with the appropriate blocking solution (see Table 2) and incubated for 2 hours at 37° C. After incubation plates were washed in PBS-T (×3) and tapped dry. Supernatants were transferred from cell culture plates to fresh 96 well plates. All supernatants were stored at −20° C. when not in use. Cell supernatants were applied to plates at the indicated dilutions (see Table 2). A blank triplicate was left on each plate containing the diluent as a blank. Standards were prepared at the starting concentration in the recommended diluent as specified by the manufacturer and transferred to a 96 well plate and serial dilutions (1:2) performed (see Table 2). All standards and samples were applied to plates at 40 μl/well total volume for incubation overnight at 4° C. After incubation plates were washed with PBS-T (×5) and tapped dry. […] Plates were then stopped by the addition of 20 μl/well of 1M H2SO4 and read. […]

[2] = test system: IL-1β production by bone marrow-derived dendritic cells (BMDCs); assay: IL-1β ELISA on supernatants of BMDCs incubated with particles; assay type: cell-based, mouse; settings: C57BL/6 BMDCs; LPS 1 ng/ml; serial dilutions SC-PS 31.25 μg/ml to 1 mg/ml with lectin 1.56 to 50 μg/ml; vs unconjugated SC-PS
Protocol: as §1, §2

[3] = test system: IL-1α production by BMDCs from NLRP3−/− mice; assay: IL-1α ELISA on supernatants of NLRP3−/− BMDCs; assay type: cell-based, mouse; settings: SC-PS 31.25 μg/ml to 1 mg/ml, lectin 1.56 to 50 μg/ml, vs untargeted particles
Protocol: as §1
(§3) Capture antibodies were obtained from BD Pharmingen (San Diego, Calif.), BioLegend (San Diego, Calif.) and R&D Systems, Inc. (Minneapolis, Minn.) and prepared according to the manufacturer's specifications (see Table 2) and a volume of 40 μl/well added to high-binding 96 well ELISA plates. Plates were then incubated for 2 hours at 37° C. or overnight at 4° C. After incubation, plates were washed in PBS-T (×3) and tapped dry. Plates were then blocked with the appropriate blocking solution (see Table 2) and incubated for 2 hours at 37° C. After incubation plates were washed in PBS-T (×3) and tapped dry. […] Plates were then stopped by the addition of 20 μl/well of 1M H2SO4 and read. […]

[4] = test system: IL-1β production by BMDCs from NLRP3−/− mice; assay: IL-1β ELISA on supernatants of NLRP3−/− BMDCs; assay type: cell-based, mouse; settings: SC-PS 31.25 μg/ml to 1 mg/ml, lectin 1.56 to 50 μg/ml
Protocol: as §1, §3

[5] = test system: BALB/c mice; assay: OVA-specific cytokine responses of peritoneal cells after i.p. immunization; assay type: in vivo, mouse; settings: i.p. days 0 and 35, day 42; OVA 100 μg/ml restimulation; comparison with OVA-loaded PS particles
Protocol: Five groups of 6-8 week old female BALB/c mice (five mice per group) were i.p, immunized on day 0 with a total volume of 200 μl of vaccine. All ovalbumin (OVA) used was endotoxin-free. The groups were:
On day 34, blood was collected from the tail vein of each mouse and used to measure serum antibody titres. The following day, mice were i.p. immunized with an identical series of booster vaccinations as on day 0. Mice were sacrificed on day 42 by cervical dislocation, and cells were harvested.
Spleens were removed from the mice, and single cell suspensions prepared as described above. Peritoneal lavages were also performed. Cells were plated onto 96 well U-bottomed plates at cell densities of 2×10^6 cells/ml for splenocytes and 1×10^6 cells/ml for peritoneal lavage cells in 200 μl of complete RPMI 1640 medium per well.
Cells were stimulated in vitro with PBS, endotoxin-free OVA (50 μg/ml, 100 μg/ml, 500 μg/ml), phorbol myristate acetate (PMA, 25 ng/ml) combined with anti-CD3 (1 μg/ml) or anti-CD3 alone (0.5 μg/ml). Cells were incubated with antigen for 3 days. Supernatants were then removed and IL-5, IL-10, IL-17 and IFN-γ cytokine concentrations were determined by ELISA. […]

| Molecule | TLR-4 agonist-primed IL-1α production [1] | TLR-4 agonist-primed IL-1β production [2] | IL-1α production in the absence of NLRP3 [3] | IL-1β production in the absence of NLRP3 [4] | antigen-specific IL-5 by peritoneal cells [5] | antigen-specific IL-17 by peritoneal cells [5] |
| --- | --- | --- | --- | --- | --- | --- |
| PHA-L: SC-PS particles conjugated with biotinylated Phaseolus vulgaris leukoagglutinin | greatly increased IL-1α production and remained effective across four of the five serial dilutions | greatly increased IL-1β production and remained effective across four serial dilutions | enhances IL-1α production | not IL-1β production | – | – |
| PHA-E: SC-PS particles conjugated with biotinylated Phaseolus vulgaris erthyroagglutinin | greatly increased IL-1α production and remained effective across four of the five serial dilutions | greatly increased IL-1β production and remained effective across four serial dilutions | enhances IL-1α production | not IL-β production | – | – |
| OVA alone: endotoxin-free ovalbumin antigen, 50 μg/mouse, without particles (protein, UniProt P01012 2-386, looked up, endotoxin-free, endotoxin-free ovalbumin antigen, 50 μg/mouse, without particles) Ovalbumin: GSIGAASMEFCFDVFKELKVHHANENIFYCPIAIMSALAMVYLGAKDSTRTQINKVVRFDKLPGFGDSIEAQCGTSVNVHSSLRDILNQITKPNDVYSFSLASRLYAEERYPILPEYLQCVKELYRGGLEPINFQTAADQARELINSWVESQTNGIIRNVLQPSSVDSQTAMVLVNAIVFKGLWEKAFKDEDTQAMPFRVTEQESKPVQMMYQIGLFRVASMASEKMKILELPFASGTMSMLVLLPDEVSGLEQLESIINFEKLTEWTSSNVMEERKIKVYLPRMKMEEKYNLTSVLMAMGITDVFSSSANLSGISSAESLKISQAVHAAHAEINEAGREVVGSAEAGVDAASVSEEFRADHPFLFCIKHIATNAVLFFGRCVSP | – | – | – | – | stronger | stronger |
